± gives the expanded uncertainty stated by the source.
Assay: xn = mol fraction of the nth substance listed
Conditions: Liquid, Custom Made Vibrating Tube Densimeter

C=C1CC[C@H]2C[C@@H]1C2(C)C [(1S,5S)-6,6-dimethyl-2-methylenebicyclo[3.1.1]heptane] + C=C(C)[C@H]1CC=C(C)CC1
mass density [kg/m3]
Conditions | x2 = 0 | x2 = 0.11 | x2 = 0.2008 | x2 = 0.289 | x2 = 0.3961 | x2 = 0.4938 | x2 = 0.5906 | x2 = 0.6984 | x2 = 0.7993 | x2 = 0.9022
328.15 K, 20000 kPa | 858.2 ± 1 | 855.3 ± 1 | 852.6 ± 1 | 850.1 ± 1 | 846.9 ± 1 | 844.3 ± 1 | 841.5 ± 1.1 | 838.9 ± 1.1 | 835.9 ± 1.1 | 833.1 ± 1.1
328.15 K, 25000 kPa | 861.7 ± 1 | 858.7 ± 1 | 856 ± 1 | 853.5 ± 1 | 850.4 ± 1 | 847.7 ± 1 | 844.9 ± 1.1 | 842.1 ± 1.1 | 839.4 ± 1.1 | 836.4 ± 1.1
328.15 K, 30000 kPa | 865.2 ± 1 | 862.1 ± 1 | 859.5 ± 1 | 857 ± 1 | 853.9 ± 1 | 851.2 ± 1 | 848.5 ± 1.1 | 845.4 ± 1.1 | 842.7 ± 1.1 | 839.7 ± 1.1
328.15 K, 35000 kPa | 868.7 ± 1 | 865.5 ± 1 | 862.7 ± 1 | 860.3 ± 1 | 857.2 ± 1 | 854.6 ± 1 | 851.9 ± 1.1 | 848.7 ± 1.1 | 846.1 ± 1.1 | 843.1 ± 1.1
328.15 K, 40000 kPa | 872.2 ± 1 | 868.8 ± 1 | 866.1 ± 1 | 863.7 ± 1 | 860.7 ± 1 | 857.8 ± 1 | 855.3 ± 1.1 | 852 ± 1.1 | 849.4 ± 1.1 | 846.8 ± 1.1
343.15 K, 20000 kPa | 847.7 ± 1 | 844.7 ± 1 | 842.1 ± 1 | 839.6 ± 1 | 836.7 ± 1 | 834 ± 1 | 831.4 ± 1.1 | 828.4 ± 1.1 | 825.7 ± 1.1 | 822.7 ± 1.1
343.15 K, 25000 kPa | 851.4 ± 1 | 848.4 ± 1 | 845.8 ± 1 | 843.5 ± 1 | 840.3 ± 1 | 837.6 ± 1 | 834.9 ± 1.1 | 832 ± 1.1 | 829.1 ± 1.1 | 826.3 ± 1.1
343.15 K, 30000 kPa | 855 ± 1 | 852 ± 1 | 849.4 ± 1 | 846.9 ± 1 | 843.9 ± 1 | 841.2 ± 1 | 838.6 ± 1.1 | 835.6 ± 1.1 | 832.9 ± 1.1 | 830 ± 1.1
343.15 K, 35000 kPa | 858.6 ± 1 | 855.5 ± 1 | 853.1 ± 1 | 850.6 ± 1 | 847.4 ± 1 | 844.8 ± 1 | 842.3 ± 1.1 | 839.1 ± 1.1 | 836.7 ± 1.1 | 833.6 ± 1.1
343.15 K, 40000 kPa | 862.1 ± 1 | 859 ± 1 | 856.7 ± 1 | 854 ± 1 | 850.8 ± 1 | 848.3 ± 1 | 845.6 ± 1.1 | 842.4 ± 1.1 | 840.1 ± 1.1 | 837.1 ± 1.1
358.15 K, 20000 kPa | 837 ± 1 | 834 ± 1 | 831.4 ± 1 | 829.2 ± 1 | 826.3 ± 1 | 823.7 ± 1 | 821 ± 1.1 | 818.2 ± 1.1 | 815.6 ± 1.1 | 812.5 ± 1.1
358.15 K, 25000 kPa | 840.9 ± 1 | 838 ± 1 | 835.4 ± 1 | 833 ± 1 | 830.1 ± 1 | 827.4 ± 1 | 824.9 ± 1.1 | 822 ± 1.1 | 819.4 ± 1.1 | 816.7 ± 1.1
358.15 K, 30000 kPa | 844.8 ± 1 | 841.9 ± 1 | 839.2 ± 1 | 836.8 ± 1 | 833.8 ± 1 | 831.2 ± 1 | 828.6 ± 1.1 | 825.7 ± 1.1 | 823 ± 1.1 | 820 ± 1.1
358.15 K, 35000 kPa | 848.7 ± 1 | 845.7 ± 1 | 843 ± 1 | 840.6 ± 1 | 837.5 ± 1 | 834.9 ± 1 | 832.4 ± 1.1 | 829.4 ± 1.1 | 826.8 ± 1.1 | 823.9 ± 1.1
358.15 K, 40000 kPa | 852.6 ± 1 | 849.6 ± 1 | 846.8 ± 1 | 844.6 ± 1 | 841.4 ± 1 | 838.7 ± 1 | 836.2 ± 1.1 | 833.1 ± 1.1 | 830.3 ± 1.1 | 827.3 ± 1.1

From the NIST ThermoML archive (doi:10.1016/j.jct.2011.12.013)
